In patent US10618903B2, “Heteroaryl substituted aminopyridine compounds” (BRISTOL-MYERS SQUIBB COMPANY, priority 2015, dated 2020) one finds Papp, EC50 and IC50 data, which are given here for 16 compounds.

The nature of one series: Caco Permeability Assay. The class given is in vitro ADME. The note with it: human, Caco-2, Caco-2 cells, 3 μM compound.
The subject of series [1] is IL-6 levels in human whole blood stimulated with a TLR2 agonist. Briefly: IRAK4 Whole Blood Assay (lipoteichoic acid/TLR2-stimulated IL-6). The class given is cell-based. The note with it: lipoteichoic acid 10 μg/mL, IL-6 readout. An outline of the steps: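 ACD-A-anticoagulated human whole blood was preincubated with compounds for 60 min at 37 °C under 5% CO2. It was then stimulated with 10 μg/mL lipoteichoic acid (final) in RPMI for 5 h. IL-6 in plasma supernatants was measured by flow cytometry bead assay.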

In a further series the target is IRAK4 (Homo sapiens (Human), UniProt Q9NWZ3). In words: IRAK4 Inhibition Assay. The class given is biochemical. The note with it: ATP 500 μM; IRAK4 0.6 nM. The gist of the method: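 Enzyme 0.6 nM, ATP 500 μM, FL-peptide 1.5 μM, DMSO 1.6%; HEPES pH 7.2/MgCl2/Brij 35/DTT buffer. RT, 60 min, EDTA stop. Mobility-shift product/substrate ratio; % inhib vs no-enzyme and vehicle controls.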
IRAK4, sequence (Q9NWZ3 whole entry): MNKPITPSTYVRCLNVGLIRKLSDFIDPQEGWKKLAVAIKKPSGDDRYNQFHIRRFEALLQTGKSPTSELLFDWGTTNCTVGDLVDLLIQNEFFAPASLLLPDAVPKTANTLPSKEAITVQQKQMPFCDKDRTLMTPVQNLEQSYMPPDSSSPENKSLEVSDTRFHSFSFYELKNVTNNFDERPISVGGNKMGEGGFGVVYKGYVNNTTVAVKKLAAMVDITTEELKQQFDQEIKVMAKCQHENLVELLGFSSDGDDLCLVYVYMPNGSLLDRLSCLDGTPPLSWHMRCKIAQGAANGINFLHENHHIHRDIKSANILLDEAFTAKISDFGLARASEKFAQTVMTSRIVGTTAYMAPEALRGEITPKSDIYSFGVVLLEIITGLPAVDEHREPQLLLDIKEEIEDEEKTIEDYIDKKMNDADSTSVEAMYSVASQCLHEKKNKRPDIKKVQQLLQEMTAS

What is called Papp is the rate of passage across a membrane or cell layer, normalised by area and donor concentration. Low readings indicate poor permeation, high ones ready permeation. Broadly, the EC50 is the concentration giving half of the maximal effect. A lower EC50 goes with an effect from little substance. The term IC50 denotes the concentration that gives 50% inhibition. In “Caco Permeability Assay”, `CC(C)(O)[C@H](F)CNC(=O)c1cnc(-c2cnc3cc(Cl)cnn23)cc1NC1CC(F)C1` (stereo partly drawn) [Example 199, (R)-6-(7-chloroimidazo[1,2-b]pyridazin-3-yl)-N-(2-fluoro-3-hydroxy-3-methylbutyl)-4-((3-fluorocyclobutyl)amino)nicotinamide] displayed a Papp at 2 h, 3 µM of 15.8 ×10⁻⁶ cm/s. The compound further returned an EC50 in series [1] (Homo sapiens) of 550 nM. Also, the IC50 at IRAK4 came out at 4 nM.
The like results for `CCNc1cc(-c2cnc3cc(C#N)cnn23)ncc1C(=O)NC[C@@H](F)C(C)(C)O` [Example 188, (R)-6-(7-cyanoimidazo[1,2-b]pyridazin-3-yl)-4-(ethylamino)-N-(2-fluoro-3-hydroxy-3-methylbutyl)nicotinamide] were, in that order, 6.7 ×10⁻⁶ cm/s, 240 nM and 5 nM.
Consider `C[C@@H](CO)Nc1cc(-c2cnc3cc(Cl)cnn23)ncc1C(=O)NC[C@@H](F)C(C)(C)O` [Example 181, 6-(7-chloroimidazo[1,2-b]pyridazin-3-yl)-N—((R)-2-fluoro-3-hydroxy-3-methylbutyl)-4-(((S)-1-hydroxypropan-2-yl)amino)nicotinamide], for which the Papp at 2 h, 3 µM in “Caco Permeability Assay” was below 1.5 ×10⁻⁶ cm/s. The compound further yielded an EC50 in series [1] (Homo sapiens) of 100 nM. Also, the IC50 on IRAK4 was 3 nM.
The like results for `CC(C)(O)[C@H](F)CNC(=O)c1cnc(-c2cnc3cc(Cl)cnn23)cc1Nc1cnn(C2CC(F)(F)C2)c1` [Example 277, (R)-6-(7-chloroimidazo[1,2-b]pyridazin-3-yl)-4-((1-(3,3-difluorocyclobutyl)-1H-pyrazol-4-yl)amino)-N-(2-fluoro-3-hydroxy-3-methylbutyl)nicotinamide] were, in that order, 3.6 ×10⁻⁶ cm/s, 490 nM and 2 nM.
As for `CC(C)(O)[C@H](F)CNC(=O)c1cnc(-c2cnn3cc(Cl)cnc23)cc1NC1CC(F)(F)C1` [Example 65, (R)-6-(6-chloropyrazolo[1,5-a]pyrimidin-3-yl)-4-((3,3-difluorocyclobutyl)amino)-N-(2-fluoro-3-hydroxy-3-methylbutyl)nicotinamide], the Papp at 2 h, 3 µM in “Caco Permeability Assay” is 12.6 ×10⁻⁶ cm/s. Moreover, the EC50 in series [1] (Homo sapiens) worked out at 3470 nM. Further, the IC50 on IRAK4 turned out to be 4 nM.
Turning to `CC(F)(F)Cn1cc(Nc2cc(-c3cnc4cc(C#N)cnn34)ncc2C(=O)NC[C@@H](F)C(C)(C)O)cn1` [Example 265, (R)-6-(7-cyanoimidazo[1,2-b]pyridazin-3-yl)-4-((1-(2,2-difluoropropyl)-1H-pyrazol-4-yl)amino)-N-(2-fluoro-3-hydroxy-3-methylbutyl)nicotinamide], in the series “Caco Permeability Assay”, the Papp at 2 h, 3 µM is below 1.5 ×10⁻⁶ cm/s. This compound had an EC50 in series [1] (Homo sapiens) of 440 nM. In addition, on IRAK4, the IC50 amounted to 2 nM.
In the series “Caco Permeability Assay”, `CC(C)(O)[C@H](F)CNC(=O)c1cnc(-c2cnn3cc(Cl)cnc23)cc1Nc1cnn(CC2CC2)c1` [Example 251, (R)-6-(6-chloropyrazolo[1,5-a]pyrimidin-3-yl)-4-((1-(cyclopropylmethyl)-1H-pyrazol-4-yl)amino)-N-(2-fluoro-3-hydroxy-3-methylbutyl)nicotinamide] displayed a Papp at 2 h, 3 µM of 7.6 ×10⁻⁶ cm/s. In series [1] (Homo sapiens), this compound registered an EC50 of 410 nM. Also, the IC50 at IRAK4 is 1 nM.
With `CC(C)(F)Cn1cc(Nc2cc(-c3cnn4cc(Cl)cnc34)ncc2C(=O)NC[C@@H](F)C(C)(C)O)cn1` [Example 227, (R)-6-(6-chloropyrazolo[1,5-a]pyrimidin-3-yl)-4-((1-(2-fluoro-2-methylpropyl)-1H-pyrazol-4-yl)amino)-N-(2-fluoro-3-hydroxy-3-methylbutyl)nicotinamide], the Papp at 2 h, 3 µM in “Caco Permeability Assay” came out at 4 ×10⁻⁶ cm/s. This compound also had an EC50 in series [1] (Homo sapiens) of 170 nM. At IRAK4, the IC50 came to 2 nM.
In “Caco Permeability Assay”, `CC(C)(O)[C@H](F)CNC(=O)c1cnc(-c2cnc3cc(C#N)cnn23)cc1NCCC(F)(F)F` [Example 205, (R)-6-(7-cyanoimidazo[1,2-b]pyridazin-3-yl)-N-(2-fluoro-3-hydroxy-3-methylbutyl)-4-((3,3,3-trifluoropropyl)amino)nicotinamide] gave a Papp at 2 h, 3 µM of 4.5 ×10⁻⁶ cm/s. The compound also yielded an EC50 in series [1] (Homo sapiens) of 210 nM. Besides, the IC50 at IRAK4 was 4 nM.
For the compound `CC(C)(O)[C@H](F)CNC(=O)c1cnc(-c2cnn3cc(Cl)cnc23)cc1Nc1cnn(CC(F)(F)F)c1` [Example 226, (R)-6-(6-chloropyrazolo[1,5-a]pyrimidin-3-yl)-N-(2-fluoro-3-hydroxy-3-methylbutyl)-4-((1-(2,2,2-trifluoroethyl)-1H-pyrazol-4-yl)amino)nicotinamide], the Papp at 2 h, 3 µM in “Caco Permeability Assay” amounted to 3.6 ×10⁻⁶ cm/s. For the same compound, a half-maximal response in series [1] (EC50) required 210 nM. The IC50 at IRAK4 turned out to be 3 nM.
As for `CC(C)(O)[C@H](F)CNC(=O)c1cnc(-c2cnn3cc(C#N)cnc23)cc1NCC(F)F` [Example 171, (R)-6-(6-cyanopyrazolo[1,5-a]pyrimidin-3-yl)-4-((2,2-difluoroethyl)amino)-N-(2-fluoro-3-hydroxy-3-methylbutyl)nicotinamide], the Papp at 2 h, 3 µM in “Caco Permeability Assay” turned out to be 1.9 ×10⁻⁶ cm/s. In series [1] (Homo sapiens), this compound yielded an EC50 of 360 nM. Also, the IC50 on IRAK4 stood at 6 nM.
`CC(C)(O)[C@H](F)CNC(=O)c1cnc(-c2cnn3cc(Cl)cnc23)cc1NCCC(F)(F)F` [Example 161, (R)-6-(6-chloropyrazolo[1,5-a]pyrimidin-3-yl)-N-(2-fluoro-3-hydroxy-3-methylbutyl)-4-((3,3,3-trifluoropropyl)amino)nicotinamide] came in with a Papp at 2 h, 3 µM in “Caco Permeability Assay” of 15.3 ×10⁻⁶ cm/s. The EC50 in series [1] turned out to be 610 nM. In addition, the IC50 on IRAK4 was 6 nM.
In “Caco Permeability Assay”, `CC(C)(O)[C@H](F)CNC(=O)c1cnc(-c2cnc3cc(Cl)cnn23)cc1NC1CCC1` [Example 180, (R)-6-(7-chloroimidazo[1,2-b]pyridazin-3-yl)-4-(cyclobutylamino)-N-(2-fluoro-3-hydroxy-3-methylbutyl)nicotinamide] returned a Papp at 2 h, 3 µM of 16.5 ×10⁻⁶ cm/s. In addition, the EC50 in series [1] (Homo sapiens) came out at 930 nM. For the same compound, the IC50 at IRAK4 came to 2 nM.
In the case of `CC(C)(O)[C@H]1CC[C@H](NC(=O)c2cnc(-c3cnc4cc(C#N)cnn34)cc2Nc2cnn(C3CC3)c2)CC1` [Example 286, 6-(7-cyanoimidazo[1,2-b]pyridazin-3-yl)-4-((1-cyclopropyl-1H-pyrazol-4-yl)amino)-N-((1r,4r)-4-(2-hydroxypropan-2-yl)cyclohexyl) nicotinamide], the Papp at 2 h, 3 µM in “Caco Permeability Assay” stood at 5.5 ×10⁻⁶ cm/s. In series [1] (Homo sapiens), the EC50 worked out at 180 nM. In addition, the IC50 on IRAK4 turned out to be 2 nM.
For the compound `CC(C)(O)[C@H](F)CNC(=O)c1cnc(-c2cnn3cc(Cl)cnc23)cc1NC1CCN(S(C)(=O)=O)CC1` [Example 68, (R)-6-(6-chloropyrazolo[1,5-a]pyrimidin-3-yl)-N-(2-fluoro-3-hydroxy-3-methylbutyl)-4-((1-(methylsulfonyl)piperidin-4-yl)amino) nicotinamide], the Papp at 2 h, 3 µM in the series “Caco Permeability Assay” was below 1.5 ×10⁻⁶ cm/s. Further, the EC50 in series [1] (Homo sapiens) stood at 420 nM. Moreover, the IC50 on IRAK4 came to 2 nM.
The compound `CC(C)(O)[C@H](F)CNC(=O)c1cnc(-c2cnn3cc(C#N)cnc23)cc1Nc1cnn(CC(F)(F)F)c1` [Example 236, (R)-6-(6-cyanopyrazolo[1,5-a]pyrimidin-3-yl)-N-(2-fluoro-3-hydroxy-3-methylbutyl)-4-((1-(2,2,2-trifluoroethyl)-1H-pyrazol-4-yl)amino) nicotinamide] gave a Papp at 2 h, 3 µM in “Caco Permeability Assay” below 1.5 ×10⁻⁶ cm/s. This compound also had an EC50 in series [1] of 660 nM. Moreover, the IC50 on IRAK4 was 3 nM.
